The results in this text go back to patent US20110312930A1, “Aryl compounds with aminoalkyl substituents and their use” (BAYER SCHERING PHARMA AKTIENGESELLSCHAFT, priority 2008, published 2011).

The test system of the assay is HCT 116 cells transfected with a luciferase reporter under the control of an HIF-responsive sequence. The experiment in a line: HIF-luciferase assay. It is filed as cell-based. The note with it: Homo sapiens; HCT 116 HIF-luciferase reporter cells, hypoxia chamber (1% O2), 24 h, luminescence. On the procedure:
HCT 116 cells were transfected in a stable manner with a plasmid which contained a luciferase reporter under the control of an HIF-responsive sequence. These cells were sown in microtitre plates [20 000 cells/cavity in RPMI 1640 medium with 10% foetal calf serum (FCS) and 100 μg/ml of hygromycin]. Incubation was carried out overnight under standard conditions (5% CO2, 21% O2, 37° C., moistened). The following morning the cells were incubated with various concentrations of the test substances (0-10 μmol/l) in a hypoxia chamber (1% O2). After 24 h, Bright Glo reagent (Promega, Wisconsin, USA) was added in accordance with the manufacturer's instructions, and after 5 min the luminescence was measured. Cells which were incubated under normoxia served as background controls.
Take `Cc1cc(-c2nc(-c3ccc(C(C)(C)C(F)(F)F)cc3)no2)nn1Cc1ccc(NCCN2CCCC2)nc1` [Example 14, 5-[(5-Methyl-3-{3-[4-(1,1,1-trifluoro-2-methylpropan-2-yl)phenyl]-1,2,4-oxadiazol-5-yl}-1H-pyrazol-1-yl)methyl]-N-[2-(pyrrolidin-1-yl)ethyl]pyridine-2-amine]: inhibition was half-maximal at 7 nM (IC50). `Cc1cc(-c2nc(-c3ccc(OC(F)(F)F)cc3)no2)cn1Cc1ccc(NCCN2CCC(O)CC2)nc1` [Example 16] displayed an IC50 of 8 nM. Consider `Cc1cc(-c2nc(-c3ccc(S(=O)(=O)C(F)(F)F)cc3)no2)nn1Cc1ccc(NCCN2CCOCC2)nc1` [Example 22], for which the IC50 came to 10 nM. Take `Cc1cc(-c2nc(-c3ccc(OC(F)(F)F)cc3)no2)nn1Cc1ccc(NCCN2CCOCC2)nc1` [Example 24]: the IC50 was 10 nM. `Cc1cc(-c2nc(-c3ccc(OC(F)(F)F)cc3)no2)nn1Cc1cccc(C(=O)N(C)CCN(C)C)c1` [Example 48, N-[2-(Dimethylamino)ethyl]-N-methyl-3-[(5-methyl-3-{3-[4-(trifluoromethoxy)phenyl]-1,2,4-oxa-diazol-5-yl}-1H-pyrazol-1-yl)methyl]benzenecarboxamide] came in with an IC50 of 10 nM. `Cc1cc(-c2nc(-c3ccc(OC(F)(F)F)cc3)no2)nn1Cc1cccc(OCCN2CCCC2)c1` [Example 57, 5-(5-Methyl-1-{3-[2-(pyrrolidin-1-yl)ethoxy]benzyl}-1H-pyrazol-3-yl)-3-[4-(trifluoromethoxy)-phenyl]-1,2,4-oxadiazole]: it took 10 nM to reach half-maximal inhibition (IC50). Then `Cc1cc(-c2nc(-c3ccc(OC(F)(F)F)cc3)no2)nn1Cc1ccc(NCCN2CCOCC2)cc1` [Example 60, 4-[(5-Methyl-3-{3-[4-(trifluoromethoxy)phenyl]-1,2,4-oxadiazol-5-yl}-1H-pyrazol-1-yl)methyl]-N-[2-(morpholin-4-yl)ethyl]aniline], with 9 nM; and `Cc1cc(-c2nc(-c3ccc(OC(F)(F)F)cc3)no2)nn1Cc1ccc(SCCN2CCCC2)cc1` [Example 67, 5-[5-Methyl-1-(4-{[2-(pyrrolidin-1-yl)ethyl]sulphanyl}benzyl)-1H-pyrazol-3-yl]-3-[4-(trifluoromethoxy)phenyl]-1,2,4-oxadiazole], with 10 nM. As to `Cc1cc(-c2nc(-c3ccc(C(C)(C)C)cc3)no2)cn1Cc1ccc(NCCN2CCCC2)nc1` [Example 71], the IC50 is 6 nM. In turn, `Cc1cc(-c2nc(-c3ccc(OC(F)(F)F)cc3)no2)nn1Cc1ccc(NCCN2CCCC2=O)nc1` [Example 73] displayed an IC50 of 8 nM. Consider `Cc1cc(-c2nc(-c3ccc(OC(F)(F)F)cc3)no2)nn1Cc1ccc(NCCCN2CCCC2=O)nc1` [Example 74], for which the midpoint of inhibition, the IC50, lay at 8 nM.

On to `Cc1cc(-c2nc(-c3ccc(OC(F)(F)F)cc3)no2)nn1Cc1ccc(NCCN2CCS(=O)(=O)CC2)nc1` [Example 102, N-[2-(1,1-Dioxidothiomorpholin-4-yl)ethyl]-5-[(5-methyl-3-{3-[4-(trifluoromethoxy)phenyl]-1,2,4-oxadiazol-5-yl}-1H-pyrazol-1-yl)methyl]pyridine-2-amine], for which the 50% inhibitory concentration (IC50) was found to be 2.5 nM. Then `Cc1cc(-c2nc(-c3ccc(OC(F)(F)F)cc3)no2)nn1Cc1ccc(NCCN2CCC(F)(F)CC2)nc1` [Example 103, N-[2-(4,4-Difluoropiperidin-1-yl)ethyl]-5-[(5-methyl-3-{3-[4-(trifluoromethoxy)phenyl]-1,2,4-oxa-diazol-5-yl}-1H-pyrazol-1-yl)methyl]pyridine-2-amine], with 3 nM; and `Cc1cc(-c2nc(-c3ccc(OC(F)(F)F)cc3)no2)nn1Cc1cccc(OCCN2CCOCC2)c1` [Example 123, 4-(2-{3-[(5-Methyl-3-{3-[4-(trifluoromethoxy)phenyl]-1,2,4-oxadiazol-5-yl}-1H-pyrazol-1-yl)-methyl]phenoxy}ethyl)morpholine], with 1 nM; and `Cc1cc(-c2nc(-c3ccc(OC(F)(F)F)cc3)no2)nn1Cc1cccc(OCCN(C)C)c1` [Example 124, N,N-Dimethyl-2-{3-[(5-methyl-3-{3-[4-(trifluoromethoxy)phenyl]-1,2,4-oxadiazol-5-yl}-1H-pyrazol-1-yl)methyl]phenoxy}ethanamine], with 5 nM.
